Results from patent US6852731B2, “Antiviral compounds” (Pfizer, priority 2002, dated 2005).

Row | Compound | melting point
1 | CN(Cc1sc2c(=O)c(C(=O)NCc3ccc(Cl)cc3)cn(C)c2c1COCC[Si](C)(C)C)CC(O)c1cnccn1 (stereo not drawn) | 154.9 to 155.5 °C
2 | C=CCOCc1c(CN(C)C[C@@H](O)c2ccccn2)sc2c(=O)c(C(=O)NCc3ccc(Cl)cc3)cn(C)c12 [Example 81, 3-[(Allyloxy)methyl]-N-(4-chlorobenzyl)-2-{[[(2R)-2-hydroxy-2-pyridin-2-ylethyl](methyl)amino]methyl}-4-methyl-7-oxo-4,7-dihydrothieno[3,2-b]pyridine-6-carboxamide] | 125 to 127 °C
3 | CN(Cc1sc2c(=O)c(C(=O)NCc3ccc(Cl)cc3)cn(C)c2c1CO)CC(O)c1cnccn1 (stereo not drawn) [Example 84, N-(4-Chlorobenzyl)-3-(hydroxymethyl)-2-{[(2-hydroxy-2-pyrazin-2-ylethyl)(methyl)amino]methyl}-4-methyl-7-oxo-4,7-dihydrothieno[3,2-b]pyridine-6-carboxamide] | 211 to 213 °C
4 | CN(Cc1sc2c(=O)c(C(=O)NCc3ccc(Cl)cc3)cn(C)c2c1CO)CC(O)c1ccc(C#N)s1 (stereo not drawn) [Example 85, N-(4-Chlorobenzyl)-2-{[[2-(5-cyanothien-2-yl)-2-hydroxyethyl](methyl)amino]methyl}-3-(hydroxymethyl)-4-methyl-7-oxo-4,7-dihydrothieno[3,2-b]pyridine-6-carboxamide] | 188 to 190 °C
5 | COc1cccc(C(O)CN(C)Cc2sc3c(=O)c(C(=O)NCc4ccc(Cl)cc4)cn(C)c3c2CO)c1 (stereo not drawn) [Example 86, N-(4-Chlorobenzyl)-2-{[[2-hydroxy-2-(3-methoxyphenyl)ethyl](methyl)amino]methyl}-3-(hydroxymethyl)-4-methyl-7-oxo-4,7-dihydrothieno[3,2-b]pyridine-6-carboxamide] | 165 to 168 °C
6 | CN(Cc1sc2c(=O)c(C(=O)NCc3ccc(Cl)cc3)cn(C)c2c1CO)CC(O)c1ccc2ccccc2n1 (stereo not drawn) [Example 89, N-(4-Chlorobenzyl)-3-(hydroxymethyl)-2-{[(2-hydroxy-2-quinolin-2-ylethyl)(methyl)amino]methyl}-4-methyl-7-oxo-4,7-dihydrothieno[3,2-b]pyridine-6-carboxamide] | 196 to 198 °C
7 | CN(Cc1sc2c(=O)c(C(=O)NCc3ccc(Cl)cc3)cn(C)c2c1CN)C[C@@H](O)c1ccccn1 [Example 91, 3-(Aminomethyl)-N-(4-chlorobenzyl)-2-{[[(2R)-2-hydroxy-2-pyridin-2-ylethyl](methyl)amino]methyl}-4-methyl-7-oxo-4,7-dihydrothieno[3,2-b]pyridine-6-carboxamide] | 144 to 148 °C
8 | CN(Cc1sc2c(=O)c(C(=O)NCc3ccc(Cl)cc3)cn(C)c2c1CNS(C)(=O)=O)C[C@@H](O)c1ccccn1 [Example 92, N-(4-Chlorobenzyl)-2-{[[(2R)-2-hydroxy-2-pyridin-2-ylethyl](methyl)amino]methyl}-4-methyl-3-{[(methylsulfonyl)amino]methyl}-7oxo-4,7-dihydrothieno[3,2-b]pyridine-6-carboxamide] | 171 to 177 °C (dec.)

More lines, now with the values ahead:

Row | melting point | Compound
9 | 129 to 132 °C | COCCOCc1c(CN(C)CC(O)c2cccnc2)sc2c(=O)c(C(=O)NCc3ccc(Cl)cc3)cn(C)c12 (stereo not drawn) [Example 72, N-(4-Chlorobenzyl)-2-{[(2-hydroxy-2-pyridin-3-ylethyl)(methyl)amino]methyl}-3-[(2-methoxyethoxy)methyl]-4-methyl-7-oxo-4,7-dihydrothieno[3,2-b]pyridine-6-carboxamide]
10 | 135 to 138 °C | COCCOCc1c(CN(C)CC(O)c2cccc(OC)c2)sc2c(=O)c(C(=O)NCc3ccc(Cl)cc3)cn(C)c12 (stereo not drawn) [Example 73, N-(4-Chlorobenzyl)-2-{[[2-hydroxy-2-(3-methoxyphenyl)ethyl](methyl)amino]methyl}-3-[(2-methoxyethoxy)methyl]-4-methyl-7-oxo-4,7-dihydrothieno[3,2-b]pyridine-6-carboxamide]
11 | 146 to 147 °C | COCCOCc1c(CN(C)C[C@@H](O)c2ccco2)sc2c(=O)c(C(=O)NCc3ccc(Cl)cc3)cn(C)c12 [Example 74, N-(4-Chlorobenzyl)-2-{[[(2R)-2-(2-furyl)-2-hydroxyethyl](methyl)amino]methyl}-3-[(2-methoxyethoxy)methyl]-4-methyl-7-oxo-4,7-dihydrothieno[3,2-b]pyridine-6-carboxamide]
12 | 167 to 169 °C | COCCOCc1c(CN(C)CC(O)c2c[nH]c3ccccc23)sc2c(=O)c(C(=O)NCc3ccc(Cl)cc3)cn(C)c12 (stereo not drawn) [Example 75, N-(4-Chlorobenzyl)-2-{[[2-hydroxy-2-(1H-indol-3-yl)ethyl](methyl)amino]methyl}-3-[(2-methoxyethoxy)methyl]-4-methyl-7-oxo-4,7-dihydrothieno[3,2-b]pyridine-6-carboxamide]
13 | 150.5 to 152 °C | COCCOCc1c(CN(C)CC(O)c2ccccn2)sc2c(=O)c(C(=O)NCc3ccc(Cl)cc3)cn(C)c12 (stereo not drawn) [Example 76, N-(4-Chlorobenzyl)-2-{[(2-hydroxy-2-pyridin-2-ylethyl)(methyl)amino]methyl}-3-[(2-methoxyethoxy)methyl]-4-methyl-7-oxo-4,7-dihydrothieno[3,2-b]pyridine-6-carboxamide]
14 | 146.5 to 147.5 °C | COCCOCc1c(CN(C)CC(O)c2ncccn2)sc2c(=O)c(C(=O)NCc3ccc(Cl)cc3)cn(C)c12 (stereo not drawn) [Example 77, N-(4-Chlorobenzyl)-2-{[(2-hydroxy-2-pyrimidin-2-ylethyl)(methyl)amino]methyl}-3-[(2-methoxyethoxy)methyl]-4-methyl-7-oxo-4,7-dihydrothieno[3,2-b]pyridine-6-carboxamide]
15 | 163 to 164 °C | COCCOCc1c(CN(C)CC(O)c2ccc(C#N)s2)sc2c(=O)c(C(=O)NCc3ccc(Cl)cc3)cn(C)c12 (stereo not drawn) [Example 80, N-(4-Chlorobenzyl)-2-{[[2-(5-cyanothien-2-yl)-2-hydroxyethyl](methyl)amino]methyl}-3-[(2-methoxyethoxy)methyl]-4-methyl-7-oxo-4,7-dihydrothieno[3,2-b]pyridine-6-carboxamide]
